PMC10195864, “Stereochemical engineering yields a multifunctional peptide macrocycle inhibitor of Akt2 by fine-tuning macrocycle-cell membrane interactions” (Communications Chemistry, 2023)
Values joined by “and” are separate entries in the source; they are usually repeats but may differ in a detail not shown here. Identical values can stand only once. “Also recorded” adds a separate entry of the source. Like-named read-outs stand apart in the source and are kept apart here. Positions of bridges follow the written chain, without caps; N, C: chain ends. Non-standard residues stand in square brackets, D forms with d. Residues, ends and D or L forms follow the SMILES beside them. R8 = C=CCCCCCC[C@@](C)(N)C(=O)O; S5 = C=CCCC[C@](C)(N)C(=O)O

What was measured:
pAkt2 = molecular target: T1, pAkt2 (Homo sapiens, UniProt P31751); test: Protein selectivity ELISA, 25 nM protein; assay type: binding; conditions: for binding to pAkt2: single-point ELISA, 25 nM protein, A450
T1 construct: purchased Abcam
Description: A total of 1.25 μM biotinylated ligand was prepared by diluting the 1 mM stock in binding buffer (0.1% BSA, 25 mM trisCl, pH = 7.5, 150 mM NaCl, 0.05% Tween20). The prepared ligand solution or 0.125% DMSO (buffer control) in binding buffer was immobilized on a High-Capacity Streptavidin 96 well plate (Thermo Scientific). After washing the excess ligand, the plate was blocked overnight with 1% BSA in TBST. […] After three washes with the binding buffer, the plate was treated for an hour with a 1:1000 dilution of anti-His6 mouse monoclonal antibody in the binding buffer. A 1:10,000 dilution of goat anti-mouse antibody conjugated to Horse Radish Peroxide in binding buffer was added to the wells. The plates were washed four times, five minutes each, with TBST and once with TBS. The color was developed by adding TMB substrate to each well. The reaction was quenched with 0.5 M H2SO4. The absorbance values at 450 nm (A450) were measured on a 96-well plate reader. The Net A450 was obtained by subtracting the absorbance value for the blank control (no immobilized ligand) from each triplicate value obtained for the ligand–epitope interaction.

[1] = molecular target: macrocycle C2, Cy(YYTYTG-rcm); test: ELISA; biotinylated peptide (2 μM) immobilised on a streptavidin plate; serial dilutions of active His6-tagged Akt2 in binding buffer (0.1% BSA, 25 mM trisCl pH 7.5, 150 mM NaCl, 0.05% Tween20), overnight at 4 °C; detected with anti-His6 antibody; A450 fitted by non-linear regression
recombinant Akt3 = tested on: recombinant Akt3; parameters: method as in PMID 25329478; conditions: recombinant Akt; cited from earlier work
[2] = molecular target: T2, pAkt2 (active His6-tagged Akt2) (Homo sapiens, UniProt P31751); parameters: method as in PMID 26377818; conditions: read-out: EC50 against pAkt2; cited from earlier work
T2 construct: purchased Abcam

[3] = molecular target: T3, target phosphopeptide epitope, Akt2 amino acids 450–481 (pS474) (Homo sapiens, UniProt P31751); test: Epitope selectivity ELISA, 2.5 µM His6-tagged epitope; assay type: binding; conditions: 1.25 µM ligand immobilized, 2.5 µM epitope
T3 construct: made in house; host or cells: chemical solid-phase peptide synthesis
T3 sequence (P31751 450-481 limits assumed): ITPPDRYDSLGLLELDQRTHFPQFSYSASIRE
Description: A total of 1.25 μM biotinylated ligand was prepared by diluting the 1 mM stock in binding buffer (0.1% BSA, 25 mM trisCl, pH = 7.5, 150 mM NaCl, 0.05% Tween20). The prepared ligand solution or 0.125% DMSO (buffer control) in binding buffer was immobilized on a High-Capacity Streptavidin 96 well plate (Thermo Scientific). After washing the excess ligand, the plate was blocked overnight with 1% BSA in TBST. 2.5 μM solutions of the His6-tagged target phosphopeptide epitope, Akt2 amino acids 450–481, or His6-tagged scrambled peptide was added to each of the wells and incubated overnight. After three washes with the binding buffer, the plate was treated for an hour with a 1:1000 dilution of anti-His6 mouse monoclonal antibody in the binding buffer. A 1:10,000 dilution of goat anti-mouse antibody conjugated to Horse Radish Peroxide in binding buffer was added to the wells. The plates were washed four times, five minutes each, with TBST and once with TBS. […] The absorbance values at 450 nm (A450) were measured on a 96-well plate reader. The Net A450 was obtained by subtracting the absorbance value for the blank control (no immobilized ligand) from each triplicate value obtained for the ligand–epitope interaction. […]
-FPQF(pS)YSAS-IRE and the scrambled epitope His6–Peg2-ITPPDRYDSLGLLELQRTH-YFFASQPSS-IRE overnight. […] The absorbance at 450 nm is measured to quantitate the binding. […]

[4] = molecular target: T2, pAkt2 (active His6-tagged Akt2); test: ELISA for peptides against full-length pAkt2 protein (serial dilution); assay type: binding; conditions: biotinylated ligand immobilized, His6-pAkt2 titrated
Description: A total of 2 μM solution of each biotinylated peptide was prepared in binding buffer. A total of 100 μL of each solution was added to each well of a High-Capacity Streptavidin 96 well plate (Thermo Scientific), and the plate was shaken for 2 h at room temperature. The wells were blocked with 5% milk in 25 mM tris chloride, pH = 7.4, 150 mM NaCl and 0.05% Tween 20 (TBST). The wells were washed with binding buffer five times. Serial dilutions of active His6-tagged Akt2 were made in the binding buffer. A total of 100 μL of each solution was added per well, and the plate was shaken overnight at 4 °C. The wells were washed three times with the binding buffer, then treated for an hour with a 1:1000 dilution of anti 6X His mouse monoclonal [HIS.H8] antibody. A 1:10,000 dilution of goat anti-mouse antibody-Horse Radish Peroxide conjugate in binding buffer was added to the wells for an hour. The plate was washed three times with TBST and once with TBS (25 mM tris chloride, pH = 7.5, 150 mM NaCl), treated with TMB substrate (KPL), and quenched with sulfuric acid, and the absorbance at 450 nm wavelength measured. From the absorbance values at 450 nm wavelength (A450) for each protein concentration, the corresponding blank A450 (no ligand immobilized, same concentration of protein added) was subtracted. They were then fitted by non-linear regression in GraphPad Prism 6.

T2 sequence (P31751 whole entry): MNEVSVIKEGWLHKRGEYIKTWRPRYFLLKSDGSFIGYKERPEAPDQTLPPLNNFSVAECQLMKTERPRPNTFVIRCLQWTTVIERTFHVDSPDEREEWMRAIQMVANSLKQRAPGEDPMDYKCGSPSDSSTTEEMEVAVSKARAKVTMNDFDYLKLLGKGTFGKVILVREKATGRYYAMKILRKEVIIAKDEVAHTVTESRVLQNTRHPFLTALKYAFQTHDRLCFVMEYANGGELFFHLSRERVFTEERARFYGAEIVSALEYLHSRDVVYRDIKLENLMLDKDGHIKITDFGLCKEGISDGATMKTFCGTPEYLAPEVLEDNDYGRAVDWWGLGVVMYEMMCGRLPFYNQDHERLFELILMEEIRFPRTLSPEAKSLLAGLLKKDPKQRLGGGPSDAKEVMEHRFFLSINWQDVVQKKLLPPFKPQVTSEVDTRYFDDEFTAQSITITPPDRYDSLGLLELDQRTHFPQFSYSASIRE
T1 sequence (P31751 whole entry): as above

Compound | binding to pAkt2 (pAkt2) | other results
Cy(YYTY’T’Grcm) | show no binding | –
Cy(YYTYTG-Tz4) | does not | –
full-length active His6-tagged Akt2, phosphorylated at Ser474 (pAkt2) (from UniProt P31751 1-481) (enzyme) | – | EC50 [1]: 44 nM
Cy(Y’YTY’TGrcm) | show no binding | –
NC1(c2ccc(-c3nc4ccn5c(=O)[nH]nc5c4cc3-c3ccccc3)cc2)CCC1 [MK-2206] | – | inhibition of Akt3 relative to Akt1 and Akt2 (recombinant Akt3): five-fold less
Cy(YYT-4fF-TG-rcm) | decreases binding | –
Cy(-Y4fF-TYTG-rcm) | higher signal than C2 | –
Cy(4fF-4fF-TYTG-rcm) | higher binding than C2 | –
Cy(4fF-YTYTG-rcm) | higher signal than C2 | –
Cy(YYTYT-Tz4) [C1] | binds to the target pAkt2 protein | selectivity for pAkt2 over other pAkt isoforms (pAkt2; 25 nM His6-pAkt1, pAkt2, pAkt3): selective for pAkt2 over the other two isoforms; EC50 [2]: 120 nM; binding to target phosphorylated chemical epitope [3]: better binding affinity for target chemical; also recorded: binds significantly better than the linear non-cyclized; also recorded: is a better binder than the latter
C[C@@H](O)[C@@H]1NC(=O)[C@H](Cc2ccc(O)cc2)NC(=O)[C@H]([C@@H](C)O)NC(=O)[C@H](Cc2ccc(O)cc2)NC(=O)[C@H](Cc2ccc(O)cc2)NC(=O)[C@](C)(N)CCCCCCC=CCCC[C@@](C)(C(N)=O)NC(=O)CNC1=O [C2, Cy(YYTYTG-rcm)] (H-[R8]YYTYTG[S5]-NH2; staple 1-8; N-terminus and C-terminus assumed) | – | EC50 [4]: 44 nM and 42 nM
